From patent US9346815B2, “5-chloro-2-difluoromethoxyphenyl pyrazolopyrimidine compounds, compositions and methods of use thereof” (Genentech, Inc., priority 2014, dated 2016)

Tests used:
[1] = biological target: isolated recombinant JAK2 kinase domain (Homo sapiens (Human), UniProt O60674); experiment: JAK2 enzyme assay (Caliper LabChip, peptide phosphorylation); type: biochemical; settings: 25 μM ATP
[2] = biological target: isolated recombinant JAK1 kinase domain (Homo sapiens (Human), UniProt P23458); experiment: JAK1 enzyme assay (Caliper LabChip, peptide phosphorylation); type: biochemical; settings: isolated recombinant JAK1 kinase domain, 25 μM ATP
isolated recombinant JAK1 kinase domain, sequence (P23458 875-1153): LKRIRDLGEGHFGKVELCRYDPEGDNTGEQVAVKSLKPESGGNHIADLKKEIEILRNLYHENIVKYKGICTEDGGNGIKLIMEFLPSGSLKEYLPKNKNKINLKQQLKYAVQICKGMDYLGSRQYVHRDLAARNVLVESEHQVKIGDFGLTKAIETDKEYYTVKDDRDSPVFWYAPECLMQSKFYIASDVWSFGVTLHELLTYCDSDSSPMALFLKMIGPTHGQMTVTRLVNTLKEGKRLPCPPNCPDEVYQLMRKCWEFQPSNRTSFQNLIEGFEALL

isolated recombinant JAK2 kinase domain, sequence (O60674 849-1124): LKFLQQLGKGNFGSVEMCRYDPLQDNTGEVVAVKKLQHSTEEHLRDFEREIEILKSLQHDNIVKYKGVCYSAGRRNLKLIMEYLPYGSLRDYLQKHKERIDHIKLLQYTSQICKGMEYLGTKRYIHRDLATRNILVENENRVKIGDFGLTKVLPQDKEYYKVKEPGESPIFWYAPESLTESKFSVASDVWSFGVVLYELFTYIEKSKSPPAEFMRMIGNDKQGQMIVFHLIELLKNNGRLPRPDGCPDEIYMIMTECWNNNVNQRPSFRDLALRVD

Row | Ki [1] [nM] | Ki [2] [nM] | SMILES
1 | 1.71 | 0.71 | CN(C)CCOC1CCN(C(=O)Cn2cc(NC(=O)c3cnn4cccnc34)c(-c3cc(Cl)ccc3OC(F)F)n2)CC1 [Example 73, N-[3-[5-chloro-2-(difluoromethoxy)phenyl]-1-[2-[4-[2-(dimethylamino)ethoxy]-1-piperidyl]-2-oxo-ethyl]pyrazol-4-yl]pyrazolo[1,5-a]pyrimidine-3-carboxamide]
2 | 0.71 | 0.61 | O=C(Nc1cn(CC(=O)N2CCN(CCCO)CC2)nc1-c1cc(Cl)ccc1OC(F)F)c1cnn2cccnc12 [Example 230, N-[3-[5-chloro-2-(difluoromethoxy)phenyl]-1-[2-[4-(3-hydroxypropyl)piperazin-1-yl]-2-oxo-ethyl]pyrazol-4-yl]pyrazolo[1,5-a]pyrimidine-3-carboxamide]
3 | 0.89 | 0.31 | O=C(Nc1cn(CC(=O)N2CCC(OCCO)CC2)nc1-c1cc(Cl)ccc1OC(F)F)c1cnn2cccnc12 [Example 275, N-[3-[5-chloro-2-(difluoromethoxy)phenyl]-1-[2-[4-(2-hydroxyethoxy)-1-piperidyl]-2-oxo-ethyl]pyrazol-4-yl]pyrazolo[1,5-a]pyrimidine-3-carboxamide]
4 | 0.84 | 0.66 | CN(C)C1CN(C(=O)Cn2cc(NC(=O)c3cnn4cccnc34)c(-c3cc(Cl)ccc3OC(F)F)n2)C1 [Example 64, N-[3-[5-chloro-2-(difluoromethoxy)phenyl]-1-[2-[3-(dimethylamino)azetidin-1-yl]-2-oxo-ethyl]pyrazol-4-yl]pyrazolo[1,5-a]pyrimidine-3-carboxamide]
5 | 8.67 | 14 | O=C(Nc1sc(N2CCN(CCc3ccccc3)CC2)nc1-c1cc(Cl)ccc1OC(F)F)c1cnn2cccnc12 [Example 206, N-[4-[5-chloro-2-(difluoromethoxy)phenyl]-2-[4-(2-phenylethyl)piperazin-1-yl]thiazol-5-yl]pyrazolo[1,5-a]pyrimidine-3-carboxamide]
6 | 0.52 | 0.5 | Nc1nn2cccnc2c1C(=O)Nc1cn(CC(=O)N2CCC(N3CC[C@@H](O)C3)CC2)nc1-c1cc(Cl)ccc1OC(F)F [Example 76, 2-amino-N-[3-[5-chloro-2-(difluoromethoxy)phenyl]-1-[2-[4-[(3R)-3-hydroxypyrrolidin-1-yl]-1-piperidyl]-2-oxo-ethyl]pyrazol-4-yl]pyrazolo[1,5-a]pyrimidine-3-carboxamide]
7 | 1.46 | 0.74 | CS(=O)(=O)CCN1CCN(C(=O)Cn2cc(NC(=O)c3cnn4cccnc34)c(-c3cc(Cl)ccc3OC(F)F)n2)CC1 [Example 232, N-[3-[5-chloro-2-(difluoromethoxy)phenyl]-1-[2-[4-(2-methylsulfonylethyl)piperazin-1-yl]-2-oxo-ethyl]pyrazol-4-yl]pyrazolo[1,5-a]pyrimidine-3-carboxamide]
8 | 0.72 | 0.53 | CN(C)CCOC1CCN(C(=O)Cn2cc(NC(=O)c3c(N)nn4cccnc34)c(-c3cc(Cl)ccc3OC(F)F)n2)CC1 [Example 137, 2-amino-N-[3-[5-chloro-2-(difluoromethoxy)phenyl]-1-[2-[4-[2-(dimethylamino)ethoxy]-1-piperidyl]-2-oxo-ethyl]pyrazol-4-yl]pyrazolo[1,5-a]pyrimidine-3-carboxamide]
9 | 4.15 | 5.48 | CN(CC1(C#N)CCCCC1)C1CCN(c2nc(-c3cc(Cl)ccc3OC(F)F)c(NC(=O)c3cnn4cccnc34)s2)CC1 [Example 203, N-[4-[5-chloro-2-(difluoromethoxy)phenyl] 2-[4-[(1-cyanocyclohexyl)methyl-methyl-amino]-1-piperidyl]thiazol-5-yl]pyrazolo[1,5-a]pyrimidine-3-carboxamide]
10 |  | 0.52 | CN(C)C1CN(C(=O)Cn2cc(NC(=O)c3c(N)nn4cccnc34)c(-c3cc(Cl)ccc3OC(F)F)n2)C1 [Example 138, 2-amino-N-[3-[5-chloro-2-(difluoromethoxy)phenyl]-1-[2-[3-(dimethylamino)azetidin-1-yl]-2-oxo-ethyl]pyrazol-4-yl]pyrazolo[1,5-a]pyrimidine-3-carboxamide]
11 | 0.2 |  | Nc1nn2cccnc2c1C(=O)Nc1cn(CC(=O)N2CC[C@H](O)C2)nc1-c1cc(Cl)ccc1OC(F)F [Example 270, 2-amino-N-[3-[5-chloro-2-(difluoromethoxy)phenyl]-1-[2-[(3S)-3-hydroxypyrrolidin-1-yl]-2-oxo-ethyl]pyrazol-4-yl]pyrazolo[1,5-a]pyrimidine-3-carboxamide]

More lines, now with the values behind:

Row | SMILES | Ki [1] [nM] | Ki [2] [nM]
12 | CN1[C@@H]2CC[C@H]1CN(C(=O)Cn1cc(NC(=O)c3cnn4cccnc34)c(-c3cc(Cl)ccc3OC(F)F)n1)C2 [Example 242, N-[3-[5-chloro-2-(difluoromethoxy)phenyl]-l-[2-[(1S,5R)-8-methyl-3,8-diazabicyclo[3.2.1]octan-3-yl]-2-oxo-ethyl]pyrazol-4-yl]pyrazolo[1,5-a]pyrimidine-3-carboxamide] | 1.03 | 0.95
13 | CN1CCC2(CC1)CN(C(=O)Cn1cc(NC(=O)c3c(N)nn4cccnc34)c(-c3cc(Cl)ccc3OC(F)F)n1)CCO2 [Example 215, 2-amino-N-[3-[5-chloro-2-(difluoromethoxy)phenyl]-1-[2-(9-methyl-1-oxa-4,9-diazaspiro[5.5]undecan-4-yl)-2-oxo-ethyl]pyrazol-4-yl]pyrazolo[1,5-a]pyrimidine-3-carboxamide] |  | 1.33
14 | CN1CC2(C1)CN(C(=O)Cn1cc(NC(=O)c3cnn4cccnc34)c(-c3cc(Cl)ccc3OC(F)F)n1)C2 [Example 214, N-[3-[5-chloro-2-(difluoromethoxy)phenyl]-1-[2-(6-methyl-2,6-diazaspiro[3.3]heptan-2-yl)-2-oxo-ethyl]pyrazol-4-yl]pyrazolo[1,5-a]pyrimidine-3-carboxamide] | 1.29 | 1.17
15 | Nc1nn2cccnc2c1C(=O)Nc1cn(CC(=O)N2CCOCC2)nc1-c1cc(Cl)ccc1OC(F)F [Example 290, 2-amino-N-[3-[5-chloro-2-(difluoromethoxy)phenyl]-1-(2-morpholino-2-oxo-ethyl)pyrazol-4-yl]pyrazolo[1,5-a]pyrimidine-3-carboxamide] | 0.11 | 0.24
16 | O=C(Nc1cn(CC(=O)N2CCOC(CO)C2)nc1-c1cc(Cl)ccc1OC(F)F)c1cnn2cccnc12 (stereo not shown) [Example 277, N-[3-[5-chloro-2-(difluoromethoxy)phenyl]-1-[2-[2-(hydroxy-methyl)morpholin-4-yl]-2-oxo-ethyl]pyrazol-4-yl]pyrazolo[1,5-a]pyrimidine-3-carboxamide] | 0.83 | 0.51
17 | CN(CCc1ccccc1)Cc1nc(-c2cc(Cl)ccc2OC(F)F)c(NC(=O)c2cnn3cccnc23)s1 [Example 261, N-[4-[5-chloro-2-(difluoromethoxy)phenyl]-2-[[methyl(2-phenylethyl)amino]methyl]thiazol-5-yl]pyrazolo[1,5-a]pyrimidine-3-carboxamide] | 10.2 | 17.9
18 | O=C(Nc1cn(CC(=O)N2CCC(O)(c3ccccc3)CC2)nc1-c1cc(Cl)ccc1OC(F)F)c1cnn2cccnc12 [Example 289, N-[3-[5-chloro-2-(difluoromethoxy)phenyl]-1-[2-(4-hydroxy-4-phenyl-1-piperidyl)-2-oxo-ethyl]pyrazol-4-yl]pyrazolo[1,5-a]pyrimidine-3-carboxamide] | 0.38 | 0.3
19 | CN1CCC2(CC1)CN(C(=O)Cn1cc(NC(=O)c3cnn4cccnc34)c(-c3cc(Cl)ccc3OC(F)F)n1)CCO2 [Example 213, N-[3-[5-chloro-2-(difluoromethoxy)phenyl]-1-[2-(9-methyl-1-oxa-4,9-diazaspiro[5.5]undecan-4-yl)-2-oxo-ethyl]pyrazol-4-yl]pyrazolo[1,5-a]pyrimidine-3-carboxamide] | 2.34 | 1.49
20 | CCN1CCN(C(=O)Cn2cc(NC(=O)c3c(N)nn4cccnc34)c(-c3cc(Cl)ccc3OC(F)F)n2)CC1 [Example 247, 2-amino-N-[3-[5-chloro-2-(difluoromethoxy)phenyl]-1-[2-(4-ethylpiperazin-1-yl)-2-oxo-ethyl]pyrazol-4-yl]pyrazolo[1,5-a]pyrimidine-3-carboxamide] | 0.3 | 0.55
21 | Nc1nn2cccnc2c1C(=O)Nc1cn(CC(=O)N2CCC(O)(c3ccccc3)CC2)nc1-c1cc(Cl)ccc1OC(F)F [Example 286, 2-amino-N-[3-[5-chloro-2-(difluoromethoxy)phenyl]-1-[2-(4-hydroxy-4-phenyl-1-piperidyl)-2-oxo-ethyl]pyrazol-4-yl]pyrazolo[1,5-a]pyrimidine-3-carboxamide] | 0.26 | 0.54
22 | Nc1nn2cccnc2c1C(=O)Nc1cn(CC(=O)N2CCC(Oc3ccccc3)CC2)nc1-c1cc(Cl)ccc1OC(F)F [Example 285, 2-amino-N-[3-[5-chloro-2-(difluoromethoxy)phenyl]-1-[2-oxo-2-(4-phenoxy-1-piperidyl)ethyl]pyrazol-4-yl]pyrazolo[1,5-a]pyrimidine-3-carboxamide] | 0.47 | 0.61
23 | Nc1nn2cccnc2c1C(=O)Nc1cn(CC(=O)N2CCN(CC3CC3)CC2)nc1-c1cc(Cl)ccc1OC(F)F [Example 248, 2-amino-N-[3-[5-chloro-2-(difluoromethoxy)phenyl]-1-[2-[4-(cyclopropyl-methyl)piperazin-1-yl]-2-oxo-ethyl]pyrazol-4-yl]pyrazolo[1,5-a]pyrimidine-3-carboxamide] | 0.39 | 0.62
24 | O=C(Nc1cn(CC(=O)N2CCC(O)(c3ccncc3)CC2)nc1-c1cc(Cl)ccc1OC(F)F)c1cnn2cccnc12 [Example 276, N-[3-[5-chloro-2-(difluoromethoxy)phenyl]-1-[2-[4-hydroxy-4-(4-pyridyl)-1-piperidyl]-2-oxo-ethyl]pyrazol-4-yl]pyrazolo[1,5-a]pyrimidine-3-carboxamide] | 0.18 | 0.23
25 | C[C@@H]1CN(C(=O)Cn2cc(NC(=O)c3c(N)nn4cccnc34)c(-c3cc(Cl)ccc3OC(F)F)n2)C[C@H](C)N1 [Example 251, 2-amino-N-[3-[5-chloro-2-(difluoromethoxy)phenyl]-1-[2-[(3R,5S)-3,5-dimethylpiperazin-1-yl]-2-oxo-ethyl]pyrazol-4-yl]pyrazolo[1,5-a]pyrimidine-3-carboxamide] |  | 0.83
